Read-outs that look alike come from different tables or passages of the source.
What was measured:
[1] = system: L. donovani intracellular amastigotes infecting THP-1 macrophages; assay: GSK intramacrophage L. donovani assay (LD AMMAC, inMac; Assay Conditions C); assay type: cell-based; conditions: Leishmania donovani; THP-1 cells; values marked c; read-out: L. donovani amastigotes EC50 (THP-1 cells)
Protocol: Assay Conditions C: The intramacrophage Leishmania donovani activity assay was performed as described in Antimicrob Agents Chemother (2013) 57(7):2913-22.
(§1) The intramacrophage Leishmania donovani activity assay (LD AMMAC) at GlaxoSmithKline was performed as described.
(§2) Given the literature precedents described above and the apparent narrow tolerance for R^3 substitutions observed in the primary screen compounds, a thorough and methodical assessment was undertaken of tolerated groups at the three points of diversity (R^1/R^2/R^3) for the core. At this stage of the project, all analogues were assessed using a battery of assays performed in-house at GlaxoSmithKline. For antileishmanial activity, GSK's inMac assay was utilized. This assay provides two readouts of compound potency: average number of intracellular amastigotes per infected cell (AMMAC) EC50, percentage of infected cells per well (INFCELL) EC50, as well as a toxicity output derived from the number of host cells (MAC EC50). In addition, compounds were assessed for toxicity against HepG2 cells (HEPG2 EC50). Here, AMMAC EC50 values were focused on for relative potency assessments. […] It should be noted that for all compounds assessed in this project, the measured toxicity against THP-1 macrophages either equaled or exceeded that of HepG2 hepatocytes, therefore the MAC SI is used here as the more conservative estimate of therapeutic index.

[2] = GSK inMac assay, host cell toxicity readout (LD MAC); assay type: cell-based, human; conditions: human
Protocol: as §1, §2

[3] = system: L. donovani intracellular amastigotes in B10R cells; assay: UCSD L. donovani infection assay (Assay Conditions D); assay type: cell-based; conditions: B10R cells
Protocol: (§3) Assay Conditions D: B10R cells (CVCL_0155) were seeded at 300 cells/well, and L. donovani WT promastigotes in stationary phase (7th day after passage) were added at 6,000 parasites/well (ratio of 20 parasites/cell). Both cells and parasites were seeded in DMEM High-Glucose medium (Gibco, cat. no. 11995065) containing 5% Fetal Bovine Serum (Sigma-Aldrich, cat. no. F2442) and 1% Penicillin-Streptomycin (Gibco, cat. no. 15140122). Cells and parasites were incubated in the presence of the compounds for 72 h at 37° C. and 5% C02. Plates were then fixed with 4% formaldehyde solution for at least 1 h, then washed with 1×PBS and stained with 5 μg/mL DAPI. Plates were read using an ImageXpress microscope (Molecular Devices) and analyzed by MetaXpress software (Molecular Devices) using a custom module optimized for this assay. […] Compounds were tested in a 10-point 2-fold serial dilution in 3 technical replicates, and 2 biological replicates. After 72 h, plates were fixed and stained with DAPI as described above. Images were acquired on an ImageXpress microscope, and analyzed using the MetaXpress custom module.
as §3, with “Compounds were obtained as 0.2 μmoles of dried film for primary single point screening. Each compound was diluted in DMSO to 10 μM final testing concentration. These compounds were tested in 2 biological replicates. The compounds were pre-spotted onto 384-well assay plates in single concentration.” for “Assay Conditions D:”, “CO2.” for “C02.”, “module. The DRCs were plotted, half-effective concentration (EC50) and half-cytotoxic concentration (CC50) were calculated using GraphPad Prism Software, version 6.05 (GraphPad Software, San Diego, CA).” for “module.”

[4] = footnote c, read-out: THP-1 Host Cell CC50

| EC50 [1] | Compound | CC50 [2, 4] | CC50 ([2]; host THP-1 cells) | L. donovani amastigotes EC75 (μM, B10R cells) [3] |
| --- | --- | --- | --- | --- |
| 2.5 µM | CC(C)Cc1n[nH]c2c1C(c1cccc(Cl)c1)N(c1ccc(C(C)(C)C)cc1)C2=O (stereo not drawn) [CMLD011131] | 15.8 µM |  |  |
| 4 µM | CCn1nc(CC(C)C)c2c1C(=O)N(c1ccc(OC)cc1)C2c1ccc(F)cc1 (stereo not drawn) [BUCMD00809] | 39.8 µM |  |  |
| 4 µM | COc1ccc(N2C(=O)c3[nH]nc(CC(C)C)c3C2c2cccc(OC)c2)cc1 (stereo not drawn) [CMLD011088] | 20 µM |  |  |
| > 100 µM | COc1ccc(N2C(=O)c3[nH]nc(CC(C)C)c3C2c2cccnc2Cl)cc1 (stereo not drawn) [CMLD011559] | 20 µM |  |  |
| 5 µM | COc1ccc(N2C(=O)c3[nH]nc(CC(C)C)c3C2c2c(Cl)cccc2Cl)cn1 (stereo not drawn) [CMLD011569] | 20 µM |  |  |
| 5 µM | COc1ccc(N2C(=O)c3[nH]nc(CC(C)C)c3C2c2ccc(F)c(C(F)(F)F)c2)cc1 (stereo not drawn) [BUCMD00802] | 25.1 µM |  |  |
| 5 µM | COc1ccc(N2C(=O)c3[nH]nc(CC(C)C)c3C2c2ccc(F)c(F)c2)cc1 (stereo not drawn) [CMLD013640] | 25.1 µM |  |  |
| 31.6 µM | CC(C)Cc1n[nH]c2c1C(c1ccc(F)cc1)N(C1CCOCC1)C2=O (stereo not drawn) [CMLD011030] | > 50 µM |  |  |
| > 50 µM | COc1ccc(N2C(=O)c3[nH]nc(CC(C)C)c3C2c2ccnnc2)cc1 (stereo not drawn) [BUCMD00801] | > 50 µM |  |  |
| 12.6 µM | COc1ccccc1N1C(=O)c2[nH]nc(CC(C)C)c2C1c1ccccc1Br (stereo not drawn) [CMLD011112] | 25.1 µM |  |  |
| 1.3 µM | CC(C)Cc1n[nH]c2c1C(c1ccc(F)cc1)N(c1ccc(Br)cc1)C2=O (stereo not drawn) [CMLD010897] | 15.9 µM |  |  |
|  | COc1ccc(N2C(=O)c3c(c(CC(C)C)nn3C)C2c2ccc(Br)cc2)cc1 (stereo not drawn) [CMLD006598] |  | ≥ 50.1 µM |  |
|  | Cc1cccnc1N1C(=O)c2[nH]nc(CC(C)C)c2C1c1ccc(F)cc1 (stereo not drawn) [BUCMD00166] |  |  | >10 µM |
|  | Cc1cc(N2C(=O)c3[nH]nc(CC(C)C)c3C2c2ccc(F)cc2)n(C)n1 (stereo not drawn) [BUCMD00169] |  |  | >10 µM |
|  | Cc1ccccc1C1c2c(CC(C)C)n[nH]c2C(=O)N1c1ccc(N2CCN(C)CC2)nc1 (stereo not drawn) [BUCMD00721] |  |  | 5.0 µM |
|  | COc1ccc(OC)c(C2c3c(CC(C)C)n[nH]c3C(=O)N2c2cncc(Br)c2)c1 (stereo not drawn) [BUCMD00196] |  |  | >10 µM |
|  | CC(C)Cc1n[nH]c2c1C(c1ccc(F)cc1)N(c1cc(C(C)C)nn1C)C2=O (stereo not drawn) [BUCMD00171] |  |  | >10 µM |
|  | CCn1cc(N2C(=O)c3[nH]nc(CC(C)C)c3C2c2ccc(F)cc2F)cn1 (stereo not drawn) [BUCMD00670] |  |  | >10 µM |
|  | COc1ccc(N2C(=O)c3[nH]nc(CC(C)C)c3C2c2ccc(Br)cc2OC)cn1 (stereo not drawn) [BUCMD00176] |  |  | >10 µM |
|  | COc1cc(N2C(=O)c3[nH]nc(CC(C)C)c3C2c2c(C)nn(C)c2Cl)ccc1Br (stereo not drawn) [BUCMD00179] |  |  | >10 µM |
|  | Cc1cccc(N2C(=O)c3[nH]nc(CC(C)C)c3C2c2ccc(F)cc2)n1 (stereo not drawn) [BUCMD00175] |  |  | >10 µM |
|  | Cc1ccccc1C1c2c(CC(C)C)n[nH]c2C(=O)N1c1cncc(F)c1 (stereo not drawn) [BUCMD00697] |  |  | 2.6 µM |
|  | COc1ccc(OC)c(C2c3c(CC(C)C)n[nH]c3C(=O)N2c2cccc(C)n2)c1 (stereo not drawn) [BUCMD00199] |  |  | >10 µM |
|  | CC(C)Cc1n[nH]c2c1C(c1ccc(F)c(F)c1)N(c1ccc(C(=O)N3CCCC3)cc1)C2=O (stereo not drawn) [BUCMD00716] |  |  | >10 µM |
|  | CC(C)Cc1n[nH]c2c1C(c1ccccc1C(F)(F)F)N(c1ccn(C)n1)C2=O (stereo not drawn) [BUCMD00661] |  |  | >10 µM |
